Source: ChEMBL document CHEMBL1201862, “PubChem BioAssay data set” (2004)
Active and inactive are the calls of the source.

How the values were obtained:
[1] = molecular target: T1, Neuropeptide Y receptor type 2 (Homo sapiens, UniProt P49146); test: Fluorescence-based cell-based high-throughput dose response assay for agonists of NPY-Y2. [Related pubchem assays: 1703 (Screening assay (CNGC inhibitors).), 1359 (Screening assay (NPY-Y2 potentiators or agonists).), 1304 (Screening assay (NPY-Y1 potentiators or agonists).), 1710 (Screening assay (NPY-Y2 agonists).), 1791 (Summary AID.)]; format: functional
T1 sequence (P49146 whole entry): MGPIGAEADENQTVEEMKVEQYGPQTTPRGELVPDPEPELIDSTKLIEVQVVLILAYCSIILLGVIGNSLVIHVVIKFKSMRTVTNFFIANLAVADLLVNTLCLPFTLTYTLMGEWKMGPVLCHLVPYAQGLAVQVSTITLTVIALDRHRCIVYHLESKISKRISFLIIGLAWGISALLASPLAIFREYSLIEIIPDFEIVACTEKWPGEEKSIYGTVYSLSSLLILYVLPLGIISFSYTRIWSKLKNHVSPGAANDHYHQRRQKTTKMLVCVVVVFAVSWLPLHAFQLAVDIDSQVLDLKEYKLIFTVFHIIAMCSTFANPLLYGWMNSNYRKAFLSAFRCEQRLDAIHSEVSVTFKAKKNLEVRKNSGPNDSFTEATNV

[2] = molecular target: T2, Neuropeptide Y receptor type 1 (Homo sapiens, UniProt P25929); test: Fluorescence-based counterscreen for agonists of NPY-Y2: cell-based high-throughput dose response assay for agonists of NPY-Y1.; format: functional
T2 sequence (P25929 whole entry): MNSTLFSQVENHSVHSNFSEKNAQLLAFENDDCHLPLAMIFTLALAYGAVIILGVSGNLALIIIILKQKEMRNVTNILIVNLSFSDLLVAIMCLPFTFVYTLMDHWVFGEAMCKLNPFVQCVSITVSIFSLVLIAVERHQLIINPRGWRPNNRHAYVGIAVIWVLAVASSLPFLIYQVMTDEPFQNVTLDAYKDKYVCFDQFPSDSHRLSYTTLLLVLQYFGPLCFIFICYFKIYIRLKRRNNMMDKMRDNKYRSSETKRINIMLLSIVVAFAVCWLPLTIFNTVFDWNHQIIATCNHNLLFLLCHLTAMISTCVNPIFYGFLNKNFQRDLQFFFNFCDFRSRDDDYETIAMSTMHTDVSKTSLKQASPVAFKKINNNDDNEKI

[3] = molecular target: Lysosomal acid glucosylceramidase (Homo sapiens, UniProt P04062); test: Dose response cell-based high throughput screening assay to identify enhancers of beta-glucosidase activity. [Related pubchem assays: 784 ]; format: functional
Lysosomal acid glucosylceramidase, sequence (P04062 whole entry): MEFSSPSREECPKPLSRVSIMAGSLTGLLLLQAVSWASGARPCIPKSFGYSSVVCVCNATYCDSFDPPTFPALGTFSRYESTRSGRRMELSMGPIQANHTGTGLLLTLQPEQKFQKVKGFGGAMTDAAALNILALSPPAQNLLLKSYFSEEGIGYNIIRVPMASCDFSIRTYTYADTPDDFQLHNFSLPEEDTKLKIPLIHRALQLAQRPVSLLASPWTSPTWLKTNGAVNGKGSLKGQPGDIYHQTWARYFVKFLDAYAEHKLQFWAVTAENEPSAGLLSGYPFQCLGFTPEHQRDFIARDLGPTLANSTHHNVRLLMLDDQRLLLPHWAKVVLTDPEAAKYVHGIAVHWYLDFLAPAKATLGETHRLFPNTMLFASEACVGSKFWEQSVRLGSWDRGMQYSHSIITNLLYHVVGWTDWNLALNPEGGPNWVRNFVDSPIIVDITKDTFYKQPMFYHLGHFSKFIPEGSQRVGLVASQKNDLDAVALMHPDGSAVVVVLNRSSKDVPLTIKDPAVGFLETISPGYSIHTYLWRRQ

[4] = system: HEK293; test: Fluorescence-based counterscreen for potentiators or agonists of NPY-Y2: cell-based high-throughput dose response assay to identify inhibitors of cyclic nucleotide gated ion channel (CNGC) activity. In this assay, the parental HEK293 cell line transfected with a cyclic-nucleotide gated ion channel (CNGC)-based cAMP sensor is used to measure inhibition of isoproterenol-induced CNGC activity by test compound.; format: functional; conditions: Homo sapiens
[5] = molecular target: Cyclin-dependent kinase 5/CDK5 activator 1 (Homo sapiens, UniProt Q00535); test: blockade of human CDK5 activity – biochemical, cherry-picked samples, set 2, dose response (AID 504545)
Cyclin-dependent kinase 5/CDK5 activator 1, sequence (Q00535 whole entry): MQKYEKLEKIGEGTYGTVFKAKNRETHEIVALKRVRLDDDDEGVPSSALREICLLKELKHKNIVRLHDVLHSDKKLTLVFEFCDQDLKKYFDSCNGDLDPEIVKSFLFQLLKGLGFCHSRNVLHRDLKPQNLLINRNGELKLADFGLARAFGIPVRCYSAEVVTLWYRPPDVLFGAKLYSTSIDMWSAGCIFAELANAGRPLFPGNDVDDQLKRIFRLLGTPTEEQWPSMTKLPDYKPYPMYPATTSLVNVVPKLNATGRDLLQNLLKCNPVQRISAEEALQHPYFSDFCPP
Cyclin-dependent kinase 5/CDK5 activator 1, sequence (Q15078 whole entry, further chain): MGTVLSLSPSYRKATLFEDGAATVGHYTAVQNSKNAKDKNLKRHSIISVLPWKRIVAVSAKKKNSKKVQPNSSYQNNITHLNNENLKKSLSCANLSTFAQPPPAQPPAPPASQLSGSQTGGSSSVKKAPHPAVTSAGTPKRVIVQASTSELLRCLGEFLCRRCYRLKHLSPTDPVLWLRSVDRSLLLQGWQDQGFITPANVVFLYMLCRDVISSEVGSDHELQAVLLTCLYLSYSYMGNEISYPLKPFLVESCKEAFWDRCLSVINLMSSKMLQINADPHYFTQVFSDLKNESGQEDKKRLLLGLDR

[6] = molecular target: Mothers against decapentaplegic homolog 3 (Homo sapiens, UniProt P84022); test: blockers of Smad3 complex formation in lysate – cell lysate, secondary confirmation, chemiluminescent ELISA, HEK293 lysate, dose response (AID 1058); format: functional
Mothers against decapentaplegic homolog 3, sequence (P84022 whole entry): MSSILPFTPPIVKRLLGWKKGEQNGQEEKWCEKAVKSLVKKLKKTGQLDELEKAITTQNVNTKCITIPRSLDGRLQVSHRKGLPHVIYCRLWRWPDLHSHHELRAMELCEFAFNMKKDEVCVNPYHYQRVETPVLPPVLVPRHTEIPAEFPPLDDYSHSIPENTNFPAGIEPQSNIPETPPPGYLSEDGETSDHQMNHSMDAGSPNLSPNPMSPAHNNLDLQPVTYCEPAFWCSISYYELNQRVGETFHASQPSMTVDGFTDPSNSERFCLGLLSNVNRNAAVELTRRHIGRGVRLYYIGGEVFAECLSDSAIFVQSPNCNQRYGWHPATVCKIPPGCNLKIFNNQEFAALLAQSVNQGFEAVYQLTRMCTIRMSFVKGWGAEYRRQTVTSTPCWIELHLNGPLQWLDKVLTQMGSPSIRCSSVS

[7] = system: HEK293; test: PMA/Ionomycin induced NF-kB luciferase assay in 293- NF-kB-Luc stable cells. [Related pubchem assays: 1299, 1270, 1295, 1375, 1287, 1281, 1293, 1291, 1289, 1280, 465, 1364, 1282, 1372, 1365, 1370, 1367, 1366, 1269, 1373, 1292, 1290, 1302, 1371, 1283, 1271, 1294, 1374, 1368, 1369 ]; format: functional, cell-based; conditions: Homo sapiens
[8] = molecular target: Luciferin 4-monooxygenase (Photinus pyralis, UniProt P08659); test: In vitro luciferase assay using purified luciferase. [Related pubchem assays: 1299, 1270, 1295, 1375, 1287, 1281, 1293, 1291, 1289, 1280, 465, 1364, 1282, 1372, 1365, 1370, 1367, 1366, 1266, 1373, 1292, 1290, 1302, 1371, 1283, 1271, 1294, 1374, 1368, 1369 ]
Luciferin 4-monooxygenase, sequence (P08659 whole entry): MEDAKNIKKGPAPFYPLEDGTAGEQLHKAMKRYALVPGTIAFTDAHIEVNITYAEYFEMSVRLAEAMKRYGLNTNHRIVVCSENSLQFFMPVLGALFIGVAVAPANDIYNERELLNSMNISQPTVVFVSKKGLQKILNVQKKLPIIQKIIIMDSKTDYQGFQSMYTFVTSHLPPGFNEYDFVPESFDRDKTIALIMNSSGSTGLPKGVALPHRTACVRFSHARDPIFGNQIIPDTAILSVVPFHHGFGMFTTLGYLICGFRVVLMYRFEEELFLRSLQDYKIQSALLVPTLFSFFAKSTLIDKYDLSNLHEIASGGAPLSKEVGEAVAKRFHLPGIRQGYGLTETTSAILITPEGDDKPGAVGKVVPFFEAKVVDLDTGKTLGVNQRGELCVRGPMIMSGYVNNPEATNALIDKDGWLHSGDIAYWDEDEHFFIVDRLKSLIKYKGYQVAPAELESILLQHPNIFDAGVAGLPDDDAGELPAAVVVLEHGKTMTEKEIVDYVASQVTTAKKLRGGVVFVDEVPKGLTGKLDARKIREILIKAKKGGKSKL

[9] = system: HEK293; test: Cytotoxicity assay in HEK293 cells. [Related pubchem assays (depositor defined):AID1266, AID1269, AID1270, AID1271, AID1280, AID1281, AID1282, AID1283, AID1287, AID1289, AID1290, AID1291, AID1292, AID1293, AID1294, AID1295, AID1299, AID1302, AID1364, AID1365, AID1366, AID1367, AID1369, AID1370, AID1371, AID1372, AID1373, AID1374, AID1375, AID1384 …; format: functional, cell-based; conditions: Homo sapiens
[10] = system: Staphylococcus aureus; test: Inhibitors of Bacterial Quorum Sensing Structure Activity Relationship (SAR) Analysis: Dose Response Assay. [Related pubchem assays: 700, 527 ]; format: functional, organism-based

For `O=C(NCCCn1ccnc1)Nc1ccc(Cl)cc1`, the EC50 [1] was > 35.4 µM (not active), the EC50 [2] was > 35.4 µM (not active) and the EC50 [3] was > 50 µM (not active). The EC50 [4] was > 35.4 µM (not active).
`CC(C)Oc1ccc(NC(=O)Oc2ccccc2)cc1` was tested, and the AC50 [5] was 129 µM (active).
`O=C1OC2(c3ccc(O)c(O)c3Oc3c2ccc(O)c3O)c2c(Cl)c(Cl)c(Cl)c(Cl)c21` was tested, and the IC50 [6] was 12.4 µM (active).
For `C/C(=N\NC(=O)c1cccc([N+](=O)[O-])c1)c1ccccn1`, the EC50 [7] was 6.12 µM (not active), the EC50 [8] was > 8 µM (not active) and the EC50 [9] was 10.2 µM (inactive).
In the case of `Cc1ccc(C)c(S(=O)(=O)c2nnn3c2[nH]c(=O)c2sccc23)c1`, the IC50 [10] is reported as 5.17 µM (active).
